Measurements as given in PMC8453901, “GLPG1205, a GPR84 Modulator: Safety, Pharmacokinetics, and Pharmacodynamics in Healthy Subjects” (Clinical Pharmacology in Drug Development, 2021).
“And” between values parts separate entries of the source, which are not always exact repeats. Equal entries are not always repeated.

Assay: Safety and tolerability, study 1 MAD part
Assay type: in vivo, human
Procedure: Safety and tolerability were assessed on the basis of adverse events (AEs), which were monitored throughout both studies. Additional safety assessments included vital signs (including supine [and standing in study 2] heart rate, systolic and diastolic blood pressure, and oral body temperature), 12‐lead electrocardiogram (ECG), clinical laboratory tests (hematology, coagulation [study 2 only], serum/plasma chemistry, urinalysis, urine drug screen, serology, and alcohol breath test), and a comprehensive physical examination. […] In the MAD part of study 1, all additional safety assessments were performed at screening; days 1, 2, 8, 14, and 15; and at follow‐up. In study 2, additional safety assessments were performed at screening (between 21 and 2 days before the first study drug administration); days 1, 2, 5, 10, 14, 15, and 20 (clinical laboratory tests were not performed on day 20); at early discontinuation; and at follow‐up. For study 2, renal function tests (measurement of estimated creatinine clearance rate using the Cockcroft‐Gault equation) were also included in the clinical laboratory tests for safety assessment.
In both studies, the safety analysis was descriptive and focused on changes from baseline and treatment‐emergent findings.

O=c1nc(OC[C@@H]2COCCO2)cc2n1CCc1cc(C#CC3CC3)ccc1-2 [GLPG1205, 9‐cyclopropylethynyl‐2‐((S)‐1‐[1,4]dioxan‐2‐ylmethoxy)‐6,7‐dihydropyrimido[6,1‐a]isoquinolin‐4‐one]
Abdominal discomfort (TEAE) (50 mg QD (n = 6)): 0 number of subjects (%)
Abdominal distension (TEAE) (50 mg QD (n = 6)): 0 number of subjects (%)
Abdominal pain (TEAE) (50 mg QD (n = 6)): 0 number of subjects (%)
Abdominal pain upper (TEAE) (50 mg QD (n = 6)): 0 number of subjects (%)
Any TEAE (50 mg QD (n = 6)): 2 (33.3) number of subjects (%)
Decreased appetite (TEAE) (50 mg QD (n = 6)): 0 number of subjects (%)
Dehydration (TEAE) (50 mg QD (n = 6)): 0 number of subjects (%)
Diarrhea (TEAE) (50 mg QD (n = 6)): 1 (16.7) number of subjects (%)
Disturbance in attention (TEAE) (50 mg QD (n = 6)): 0 number of subjects (%)
Dizziness (TEAE) (50 mg QD (n = 6)): 0 number of subjects (%)
Dry skin (TEAE) (50 mg QD (n = 6)): 1 (16.7) number of subjects (%)
Ecchymosis (TEAE) (50 mg QD (n = 6)): 0 number of subjects (%)
Erythema (TEAE) (50 mg QD (n = 6)): 0 number of subjects (%)
Fatigue (TEAE) (50 mg QD (n = 6)): 0 number of subjects (%)
Flatulence (TEAE) (50 mg QD (n = 6)): 0 number of subjects (%)
Gastrointestinal disorders (TEAE) (50 mg QD (n = 6)): 1 (16.7) number of subjects (%)
General disorders and administration site conditions (TEAE) (50 mg QD (n = 6)): 0 number of subjects (%)
Headache (TEAE) (50 mg QD (n = 6)): 0 number of subjects (%)
Hot flush (TEAE) (50 mg QD (n = 6)): 0 number of subjects (%)
Metabolism and nutrition disorders (TEAE) (50 mg QD (n = 6)): 0 number of subjects (%)
Musculoskeletal and connective tissue disorders (TEAE) (50 mg QD (n = 6)): 0 number of subjects (%)
Musculoskeletal stiffness (TEAE) (50 mg QD (n = 6)): 0 number of subjects (%)
Nausea (TEAE) (50 mg QD (n = 6)): 0 number of subjects (%)
Nervous system disorders (TEAE) (50 mg QD (n = 6)): 0 number of subjects (%)
Oropharyngeal pain (TEAE) (50 mg QD (n = 6)): 0 number of subjects (%)
Respiratory, thoracic, and mediastinal disorders (TEAE) (50 mg QD (n = 6)): 0 number of subjects (%)
Skin and subcutaneous tissue disorders (TEAE) (50 mg QD (n = 6)): 1 (16.7) number of subjects (%)
Somnolence (TEAE) (50 mg QD (n = 6)): 0 number of subjects (%)
Vascular disorders (TEAE) (50 mg QD (n = 6)): 0 number of subjects (%)
Vomiting (TEAE) (50 mg QD (n = 6)): 0 number of subjects (%)
subjects with treatment-emergent abnormality during physical examination (50 mg once daily): 1 n
Abdominal discomfort (TEAE) (100 mg QD (n = 6)): 1 (16.7) number of subjects (%)
Abdominal distension (TEAE) (100 mg QD (n = 6)): 0 number of subjects (%)
Abdominal pain (TEAE) (100 mg QD (n = 6)): 0 number of subjects (%)
Abdominal pain upper (TEAE) (100 mg QD (n = 6)): 1 (16.7) number of subjects (%)
Any TEAE (100 mg QD (n = 6)): 5 (83.3) number of subjects (%)
Decreased appetite (TEAE) (100 mg QD (n = 6)): 0 number of subjects (%)
Dehydration (TEAE) (100 mg QD (n = 6)): 0 number of subjects (%)
Diarrhea (TEAE) (100 mg QD (n = 6)): 2 (33.3) number of subjects (%)
Disturbance in attention (TEAE) (100 mg QD (n = 6)): 0 number of subjects (%)
Dizziness (TEAE) (100 mg QD (n = 6)): 0 number of subjects (%)
Dry skin (TEAE) (100 mg QD (n = 6)): 0 number of subjects (%)
Ecchymosis (TEAE) (100 mg QD (n = 6)): 1 (16.7) number of subjects (%)
Erythema (TEAE) (100 mg QD (n = 6)): 1 (16.7) number of subjects (%)
Fatigue (TEAE) (100 mg QD (n = 6)): 0 number of subjects (%)
Flatulence (TEAE) (100 mg QD (n = 6)): 0 number of subjects (%)
Gastrointestinal disorders (TEAE) (100 mg QD (n = 6)): 3 (50.0) number of subjects (%)
General disorders and administration site conditions (TEAE) (100 mg QD (n = 6)): 0 number of subjects (%)
Headache (TEAE) (100 mg QD (n = 6)): 3 number of subjects (%) and 3 (50.0) number of subjects (%)
Hot flush (TEAE) (100 mg QD (n = 6)): 0 number of subjects (%)
Metabolism and nutrition disorders (TEAE) (100 mg QD (n = 6)): 0 number of subjects (%)
Musculoskeletal and connective tissue disorders (TEAE) (100 mg QD (n = 6)): 0 number of subjects (%)
Musculoskeletal stiffness (TEAE) (100 mg QD (n = 6)): 0 number of subjects (%)
Nausea (TEAE) (100 mg QD (n = 6)): 1 (16.7) number of subjects (%)
Nervous system disorders (TEAE) (100 mg QD (n = 6)): 3 (50.0) number of subjects (%)
Oropharyngeal pain (TEAE) (100 mg QD (n = 6)): 1 (16.7) number of subjects (%)
Respiratory, thoracic, and mediastinal disorders (TEAE) (100 mg QD (n = 6)): 1 (16.7) number of subjects (%)
Skin and subcutaneous tissue disorders (TEAE) (100 mg QD (n = 6)): 2 (33.3) number of subjects (%)
Somnolence (TEAE) (100 mg QD (n = 6)): 0 number of subjects (%)
Vascular disorders (TEAE) (100 mg QD (n = 6)): 0 number of subjects (%)
Vomiting (TEAE) (100 mg QD (n = 6)): 0 number of subjects (%)
subjects with treatment-emergent abnormality during physical examination (100 mg once daily): 1 n
Abdominal discomfort (TEAE) (200 mg QD (n = 6)): 1 (16.7) number of subjects (%)
Abdominal distension (TEAE) (200 mg QD (n = 6)): 1 (16.7) number of subjects (%)
Abdominal pain (TEAE) (200 mg QD (n = 6)): 1 (16.7) number of subjects (%)
Abdominal pain upper (TEAE) (200 mg QD (n = 6)): 0 number of subjects (%)
Any TEAE (200 mg QD (n = 6)): 5 (83.3) number of subjects (%)
Decreased appetite (TEAE) (200 mg QD (n = 6)): 1 (16.7) number of subjects (%)
Dehydration (TEAE) (200 mg QD (n = 6)): 2 (33.3) number of subjects (%)
Diarrhea (TEAE) (200 mg QD (n = 6)): 1 (16.7) number of subjects (%)
Disturbance in attention (TEAE) (200 mg QD (n = 6)): 1 (16.7) number of subjects (%)
Dizziness (TEAE) (200 mg QD (n = 6)): 1 (16.7) number of subjects (%)
Dry skin (TEAE) (200 mg QD (n = 6)): 0 number of subjects (%)
Ecchymosis (TEAE) (200 mg QD (n = 6)): 0 number of subjects (%)
Erythema (TEAE) (200 mg QD (n = 6)): 0 number of subjects (%)
Fatigue (TEAE) (200 mg QD (n = 6)): 3 (50.0) number of subjects (%)
Flatulence (TEAE) (200 mg QD (n = 6)): 1 (16.7) number of subjects (%)
Gastrointestinal disorders (TEAE) (200 mg QD (n = 6)): 4 (66.7) number of subjects (%)
General disorders and administration site conditions (TEAE) (200 mg QD (n = 6)): 3 (50.0) number of subjects (%)
Headache (TEAE) (200 mg QD (n = 6)): 4 number of subjects (%) and 4 (66.7) number of subjects (%)
Hot flush (TEAE) (200 mg QD (n = 6)): 1 (16.7) number of subjects (%)
Metabolism and nutrition disorders (TEAE) (200 mg QD (n = 6)): 2 (33.3) number of subjects (%)
Musculoskeletal and connective tissue disorders (TEAE) (200 mg QD (n = 6)): 1 (16.7) number of subjects (%)
Musculoskeletal stiffness (TEAE) (200 mg QD (n = 6)): 1 (16.7) number of subjects (%)
Nausea (TEAE) (200 mg QD (n = 6)): 2 (33.3) number of subjects (%)
Nervous system disorders (TEAE) (200 mg QD (n = 6)): 5 (83.3) number of subjects (%)
Oropharyngeal pain (TEAE) (200 mg QD (n = 6)): 2 (33.3) number of subjects (%)
Respiratory, thoracic, and mediastinal disorders (TEAE) (200 mg QD (n = 6)): 2 (33.3) number of subjects (%)
Skin and subcutaneous tissue disorders (TEAE) (200 mg QD (n = 6)): 0 number of subjects (%)
Somnolence (TEAE) (200 mg QD (n = 6)): 1 (16.7) number of subjects (%)
Vascular disorders (TEAE) (200 mg QD (n = 6)): 1 (16.7) number of subjects (%)
Vomiting (TEAE) (200 mg QD (n = 6)): 2 (33.3) number of subjects (%)
subjects with treatment-emergent abnormality during physical examination (200 mg once daily): 2 n
TEAE leading to study drug withdrawal: abdominal pain (200-mg once-daily group): 1 n
TEAE leading to study drug withdrawal: decreased appetite (200-mg once-daily group): 1 n
TEAE leading to study drug withdrawal: dehydration (200-mg once-daily group): 2 n
TEAE leading to study drug withdrawal: diarrhea (200-mg once-daily group): 1 n
TEAE leading to study drug withdrawal: dizziness (200-mg once-daily group): 1 n
TEAE leading to study drug withdrawal: fatigue (200-mg once-daily group): 2 n
TEAE leading to study drug withdrawal: flatulence (200-mg once-daily group): 1 n
TEAE leading to study drug withdrawal: headache (200-mg once-daily group): 3 n
TEAE leading to study drug withdrawal: musculoskeletal stiffness (200-mg once-daily group): 1 n
TEAE leading to study drug withdrawal: nausea (200-mg once-daily group): 1 n
TEAE leading to study drug withdrawal: vomiting (200-mg once-daily group): 2 n
subjects in whom study drug was withdrawn (200-mg once-daily group): 3 subjects
subjects with abnormally high hematocrit, hemoglobin and red blood cell count (200-mg once-daily group, day 8): Two
maximum tolerated dose (multiple doses, healthy male subjects): 100 mg once daily
